Data published in ChEMBL document CHEMBL1158550, “The cytotoxic styryl lactone goniothalamin is an inhibitor of nucleocytoplasmic transport” (Bioorg Med Chem Lett, 2010).
Calls of active or inactive are those of the source. No cut-off for these calls is given here.

Tests used:
[1] = biological target: Exportin-1 (Homo sapiens) (UniProt O14980); test: Inhibition of CRM1-mediated nuclear export of Rio2 in human HeLa cells at 2 uM; type: cell-based
[2] = test system: MDA-MB-231; test: Induction of apoptosis in human MDA-MB-231 cells; type: functional, cell-based
[3] = biological target: Exportin-1 (Homo sapiens) (UniProt O14980); test: Inhibition of CRM1-mediated nuclear export of Rio2 in human HeLa cells at 1 uM; type: cell-based
[4] = test system: MDA-MB-231; test: Cytotoxicity against human MDA-MB-231 cells; type: functional, cell-based

Exportin-1 (Homo sapiens), sequence (O14980 whole entry): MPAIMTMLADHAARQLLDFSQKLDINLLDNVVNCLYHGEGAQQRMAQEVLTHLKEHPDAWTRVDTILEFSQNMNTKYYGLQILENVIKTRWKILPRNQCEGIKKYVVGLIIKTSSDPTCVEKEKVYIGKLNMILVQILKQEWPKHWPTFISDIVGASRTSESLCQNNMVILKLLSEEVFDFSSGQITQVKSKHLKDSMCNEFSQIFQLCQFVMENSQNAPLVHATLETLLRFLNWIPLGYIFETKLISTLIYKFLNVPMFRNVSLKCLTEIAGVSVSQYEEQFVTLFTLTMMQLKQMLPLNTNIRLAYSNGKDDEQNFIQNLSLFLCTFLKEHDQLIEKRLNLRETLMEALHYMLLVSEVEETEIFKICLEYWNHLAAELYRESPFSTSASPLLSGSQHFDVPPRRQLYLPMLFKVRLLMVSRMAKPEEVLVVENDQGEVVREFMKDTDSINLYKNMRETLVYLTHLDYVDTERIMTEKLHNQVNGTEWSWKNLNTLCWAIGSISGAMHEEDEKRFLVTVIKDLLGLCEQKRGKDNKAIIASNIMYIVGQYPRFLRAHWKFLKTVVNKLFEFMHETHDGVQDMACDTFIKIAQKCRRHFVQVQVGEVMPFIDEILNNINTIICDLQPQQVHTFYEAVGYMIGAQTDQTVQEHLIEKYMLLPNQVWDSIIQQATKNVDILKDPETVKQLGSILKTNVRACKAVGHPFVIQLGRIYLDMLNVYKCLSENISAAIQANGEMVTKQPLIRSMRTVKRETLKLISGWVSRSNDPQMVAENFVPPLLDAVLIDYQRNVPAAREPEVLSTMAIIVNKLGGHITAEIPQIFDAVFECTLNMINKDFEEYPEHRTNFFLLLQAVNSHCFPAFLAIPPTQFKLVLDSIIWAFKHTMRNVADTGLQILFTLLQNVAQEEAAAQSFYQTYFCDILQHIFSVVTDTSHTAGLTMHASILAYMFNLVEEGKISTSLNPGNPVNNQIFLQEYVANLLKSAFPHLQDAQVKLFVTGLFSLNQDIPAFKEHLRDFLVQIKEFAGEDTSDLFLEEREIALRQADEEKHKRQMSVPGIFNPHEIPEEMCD

Compound | inhibition [1] | Activity [2] | inhibition [3] | IC50 [4] [nM]
O=C1C=CC[C@H](c2ccc(-c3ccccc3)cc2)O1 | inactive | – | – | –
O=C1C=CC[C@H](C#C/C=C/c2ccccc2)O1 | inactive | – | – | –
O=C1C=CC[C@H](/C=C/c2ccccc2)O1 [GONIOTHALAMIN] | – | Active | Active | 1460
O=C1C=CC[C@H](Cc2ccccc2)O1 | inactive | – | – | –
O=C1C=CC[C@H](c2ccccc2)O1 | inactive | – | – | –
